# Measured values as given in US20150238579A1, “METHODS FOR ASSEMBLING A PRODUCT FOR MODULATING AN IMMUNOMODULATORY RESPONSE IN HUMANS” (INVESTFOOD, LLC, priority 2014, published 2015).
# What was measured:
# [1] = system: CACO-2 cells; experiment: Cell viability (MTT assay), CACO-2; format: cell-based, human; details: CACO-2, concentrations up to 25 μM
# Protocol: (§1) The human colonic adenocarcinoma cell line CACO-2 was obtained from the Cell Culture Unit of the University of Granada (Granada, Spain) (ECACC reference number: 86010202). Cells from the human colonic adenocarcinoma cell line CACO-2 were cultured in RPMI 1640 (Sigma) supplemented with 10% fetal bovine serum (Sigma), 2 mM glutamine and 0.05 mM mercaptoethanol in a humidified 5% CO2 atmosphere at 37° C. The cultured cells were seeded onto 24-well plates until confluence and pre-incubated for twenty-four hours (24 hr) with the different concentrations of the test compound (ranging from 0.1 to 25 μM of PTSO), and then stimulated with 1 ng/ml IL-1β. After twenty four hours (24 hr), the supernatants were collected and centrifuged at 1,000 g for 10 min, and stored at −80° C. for the determination of IL-8 levels by ELISA (GE Healthcare). The effects of the different concentrations of PTSO on cell viability were assessed by using the methylthiazol terazolium (MTT) assay (Promega), following the same protocol of incubation of the test compound similar to that described above.
# [2] = system: THP-1 cells; experiment: Cell viability (MTT assay), THP-1; format: cell-based, human; details: THP-1, concentrations up to 25 μM
# [3] = system: human epithelial colorectal adenocarcinoma cells (CACO-2); experiment: IL-8 production in IL-1β-activated CACO-2 cells (ELISA); format: cell-based; details: Caco-2, 24 h pre-incubation with 0.1 to 25 μM PTSO, then 1 ng/ml IL-1β, FIG. 5
# Protocol: The effects of different concentrations of PTSO on cytokine production (IL-8) in the epithelial cell line human epithelial colorectal adenocarcinoma cells (CACO-2) activated by IL-1β were evaluated. IL-8 acts as a neutrophil attractant, which participates in the neutrophil infiltration that occurs in mucosal sites affected by an inflammatory process.
# as §1, with “After twenty four hours (24 hr), the supernatants were collected and centrifuged at 1,000 g for 10 min, and stored at −80° C. for the determination of IL-8 levels by ELISA (GE Healthcare).” left out
# [4] = system: Jurkat cells; experiment: Cell viability (MTT assay), Jurkat; format: cell-based, human; details: concentrations up to 25 μM
# [5] = system: human T cell line JURKAT E6.1; experiment: IFN-γ production in ionomycin/PMA-stimulated JURKAT E6.1 cells (ELISA); format: cell-based; details: JURKAT E6.1, 2 and 24 h pre-incubation with 0.1 to 25 μM PTSO, then 40 nM ionomycin and 0.5 μM PMA, FIG. 6
# Protocol: The human T cell line JURKAT E6.1 was obtained from the Cell Culture Unit of the University of Granada (Granada, Spain) (ECACC reference number: 88042803). Cells from the human T cell line JURKAT E6.1 were cultured in RPMI 1640 (Sigma) supplemented with 10% fetal bovine serum (Sigma), 2 mM glutamine and 0.05 mM mercaptoethanol in a humidified 5% CO2 atmosphere at 37° C. The cultured cells from the human T cell line JURKAT E6.1 were seeded onto 24-well plates at the concentration of 500,000 cells/ml and pre-incubated for 2 and 24 hours with the different concentrations of the test compound (ranging from 0.1 to 25 μM of PTSO), and then stimulated with 40 nM ionomycin and 0.5 μM of PMA. After twenty four hours (24 hours), the supernatants were collected and centrifuged at 1,000 g for 10 min, and stored at −80° C. for the determination of IFN-γ levels by ELISA (GE Healthcare).
# [6] = system: human acute monocytic leukemia cell line THP-1; experiment: IL-1β production in LPS/PMA-activated THP-1 cells (ELISA); format: cell-based; details: THP-1, 24 h pre-incubation with 0.1 to 25 μM PTSO, then 1 μg/ml LPS and 1 μM PMA, FIG. 3
# Protocol: (§2) The effects of different concentrations of PTSO on cytokine production (IL-1β and IL-6) in the human acute monocytic leukemia cell line THP-1 activated by lipopolysaccharide (LPS) and phorbol 12-myristate 13-acetate (PMA) were evaluated. Of note, IL-1β and IL-6 cytokines have been reported to play a key role in the activated immune response that takes place in different inflammatory and/or immune conditions.
# The human acute monocytic leukemia cell line THP-1 was obtained from the Cell Culture Unit of the University of Granada (Granada, Spain) (ECACC reference number: 88081201). These cells were cultured in Roswell Park Memorial Institute (RPMI) 1640 medium (Sigma, St Louis, Mo., USA) supplemented with 10% fetal bovine serum (Sigma), 2 mM glutamine and 0.05 mM mercaptoethanol in a humidified 5% carbon dioxide (CO2) atmosphere at 37° C. The cultured cells were seeded onto 24-well plates at a density of 5×10^5 cells/ml and pre-incubated for twenty four (24) hours with the different concentrations of the test compound (ranging from 0.1 to 25 μM of PTSO), and then stimulated with 1 μg/ml LPS and 1 μM phorbol 12-myristate 13-acetate (PMA). […]
# [7] = system: human acute monocytic leukemia cell line THP-1; experiment: IL-6 production in LPS/PMA-activated THP-1 cells (ELISA); format: cell-based
# Protocol: as §2
# The human acute monocytic leukemia cell line THP-1 was obtained from the Cell Culture Unit of the University of Granada (Granada, Spain) (ECACC reference number: 88081201). These cells were cultured in Roswell Park Memorial Institute (RPMI) 1640 medium (Sigma, St Louis, Mo., USA) supplemented with 10% fetal bovine serum (Sigma), 2 mM glutamine and 0.05 mM mercaptoethanol in a humidified 5% carbon dioxide (CO2) atmosphere at 37° C. The cultured cells were seeded onto 24-well plates at a density of 5×10^5 cells/ml and pre-incubated for twenty four (24) hours with the different concentrations of the test compound (ranging from 0.1 to 25 μM of PTSO), and then stimulated with 1 μg/ml LPS and 1 μM phorbol 12-myristate 13-acetate (PMA). After twenty-four hours, the supernatants were collected and centrifuged at 1,000 g for 10 min, and then stored at −80° C. for the determination of IL-1β and IL-6 levels by an enzyme-linked immunosorbent assay (ELISA) (GE Healthcare, Little Chalfont, UK).
smiles,measurement,setting,value
"CCCSS(=O)(=O)CCC [PTSO, 1-propylsulfonylsulfanylpropane]",cell viability,[1],did not significantly affect the viability
same,cell viability,[2],did not significantly affect the viability
same,production of IL-8 cytokine,[3],demonstrated immunomodulatory activity on the production of IL-8 cytokine
same,cell viability,[4],did not significantly affect the viability
same,production of interferon gamma (IFN-γ),[5],modulating immune function on the production of interferon gamma (IFN-γ)
same,production of IL-1β,[6],reduce the production of IL-1β in a dose-dependent manner
same,production of IL-6,"[7]; THP-1, 24 h pre-incubation with 0.1 to 25 μM PTSO, then 1 μg/ml LPS and 1 μM PMA, 24 h, FIG. 4",can modulate the production of IL-6
same,production of IL-6 at 0.1 µM,"[7]; THP-1 cells, at 0.1 µM",can increase the production of IL-6
same,production of IL-6 at more than 1 mM,"[7]; THP-1 cells, starting from more than 1 mM dose",a clear immunosuppressive effect is observed
